The test system of assay [1] is pigs in which lung injury was induced. In words: Partial pressure of oxygen in arterial blood (PaO2) in pigs with HCl-induced pulmonary injury. It is filed as in vivo, New Yorkshire male pigs. The conditions noted are these: pig. The protocol:
(§1) A Teflon catheter was inserted into the femoral artery of each animal for measuring blood pressure, blood ANP level and blood gas. At the same time, a pulmonary arterial cathether was inserted through the right cephalic vein for recording the changes in pulmonary arterial pressure. Pulmonary arterial pressure (PAP) and right atrial pressure (RAP) were measured with thermistor-tipped pressure transducers. Pulmonary capillary wedge pressure (PCWP) was measured with a baloon-fitted catheter. Cardiac output (CO) was calculated from the average of three measurements by the thermodilution method. Body temperature was measured with a thermistor inserted into the pulmonary artery and maintained at 37°-38° C. with the aid of a heat jacket. Electrocardiograms were induced from the four limbs and the ECC waveform and the number of heart beats were measured.

Assay [2] has the same test system. Briefly: Pulmonary arterial pressure (PAP) in pigs with HCl-induced pulmonary injury. In kind it is in vivo, New Yorkshire male pigs. The conditions noted are these: pig. The protocol:
as §1

Assay [3] shares this test system. In words: Blood pressure (BP) in pigs with HCl-induced pulmonary injury. In kind it is in vivo, New Yorkshire male pigs. The conditions noted are these: pig. The protocol: as §1
Assay [4] has the same test system. In words: Urine excretion in pigs with HCl-induced pulmonary injury. The conditions noted are these: pig, ANP versus furosemide.
Experimental: New Yorkshire male pigs weighing 16-24 kg were used in all experiments. The animals were allowed neither food nor water for 44 hr before test. They were initially anesthetized by intravenous injection of pentobarbital sodium (2.0 mg/kg) and pancuronium bromide (0.1 mg/kg) and, thereafter, the anesthetization was maintained by sustained intravenous injection of pentobarbital sodium (0.5 mg/kg/hr) and pancuronium bromide (0.1 mg/kg/hr). The animals were placed in prone position and ventilated at a frequency of 17 breaths/min with a tidal volume of 10-15 ml/kg, with the partial pressure of oxygen in arterial blood (PaO2) being held at 35-45 Torr. Physiological saline (5 ml/kg) was initially infused by intravenous injection, followed by sustained intravenous injection for 30 min at a rate of 4 ml/kg/hr.
A cannula was inserted into the bladder of each animal and urine samples were collected at 30-min intervals. Blood sampling and hemodynamic measurements were also conducted at 30-min Intervals but intermediate between collections of urine samples. Blood samples for assaying blood α-hANP levels were collected into chilled glass tubes each containing EDTA (0.1 mg/ml) and aprotinin (500 KIU/ml). […] Plasma α-hANP levels were measured by the RIA method using a rabbit anti α-hANP antibody. […]
[5] abbreviates: baseline (before HCl aspiration).

For the molecule `NS(=O)(=O)c1cc(C(=O)O)c(NCc2ccco2)cc1Cl` [furosemide], the “compensation of the decrease in PaO2 induced by HCl aspiration” value in assay [1] is recorded as “could be compensated”. For the same molecule, the PaO2 came to 120.5±33.1 mmHg in assay [1] (60 min after HCl aspiration (before drug administration)); 287.9±78.2 mmHg in assay [1] (60 min after administration (180 min after HCl aspiration), control 171.1); 490.3±29.0 mmHg in assay [1] (setting [5]). In addition, the PAP is listed as 20.4±2.3 mmHg in assay [2] (after 60 min of administration (120 min after HCl aspiration), control 18.9±2.4) and 12.7±1.9 mmHg in assay [2] (setting [5]). Moreover, the “BP lowering action / changes in BP” value in assay [3] was “No significant changes”. Besides, the “intensity of diuretic action” value in assay [4] is “comparable to each other”.

Values taken from patent US5418219A, “Pharmaceutical composition for treatment of adult respiratory distress syndrome containing human ANP” (Suntory Limited, priority 1992, dated 1995).
